Laboratory results: publication PMC6508677, “Identification of druggable small molecule antagonists of the Plasmodium falciparum hexose transporter PfHT and assessment of ligand access to the glucose permeation pathway via FLAG-mediated protein engineering” (PLoS ONE, 2019)
Several values for one entry are separate records, joined by “and”; a condition that tells them apart may be missing. Identical values can stand only once. Like-named read-outs stand apart in the source and are kept apart here.

Target: T1, hGLUT8 (Homo sapiens, UniProt Q9NY64, E7R/E8R)
T1 construct: expressed in transfected cells; host or cells: HEK293 (HEK293-FLIP, native hGLUT1 knocked down)
T1 sequence (Q9NY64 1-477 E7R/E8R): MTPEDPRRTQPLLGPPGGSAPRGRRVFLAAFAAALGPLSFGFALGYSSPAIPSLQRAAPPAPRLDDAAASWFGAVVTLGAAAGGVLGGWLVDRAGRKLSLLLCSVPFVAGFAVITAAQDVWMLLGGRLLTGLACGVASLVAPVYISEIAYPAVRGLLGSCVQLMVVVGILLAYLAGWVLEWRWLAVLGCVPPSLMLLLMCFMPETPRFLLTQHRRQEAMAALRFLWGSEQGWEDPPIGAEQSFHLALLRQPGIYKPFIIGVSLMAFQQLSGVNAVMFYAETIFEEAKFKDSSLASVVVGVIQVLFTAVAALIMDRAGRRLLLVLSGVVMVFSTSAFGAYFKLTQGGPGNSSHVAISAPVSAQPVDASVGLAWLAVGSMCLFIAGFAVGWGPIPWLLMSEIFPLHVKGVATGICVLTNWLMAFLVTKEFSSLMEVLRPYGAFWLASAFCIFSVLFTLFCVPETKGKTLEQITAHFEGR
Assay: [3H]-D-fructose uptake by HEK293 cells overexpressing hGLUT8
Type: cell-based
Source text: Generation of HEK293 cells overexpressing PfHT and human GLUTs 1–4 were described elsewhere. Briefly, HEK293 cells were transfected with pcDNA3.1 FLII12Pglu-7006 (Addgene), containing the fluorescence resonance energy transfer (FRET) glucose sensor (HEK293-FLIP) and PfHT, human GLUT1 (hGLUT1), hGLUT2, hGLUT3, hGLUT4, hGLUT5 or hGLUT8 using Optifect (Life Technologies) according to manufacturer’s specifications. To increase retention of GLUT8 at the plasma membrane, the dileucine sorting signal E^7E^8XXXLL was modified to R^7R^8XXXLL as described in [17]. Stable transfectants were selected for G418 and hygromycin resistance to select for FRET sensor and hexose transporter, respectively. HEK293-FLIP cells were also used to generate cells stably transfected with FLAG-tagged PfHT (FTPfHT). FLAG tag ([…]) followed by a triple glycine linker and a tobacco etch virus (TEV) protease site (ENLYFQS) followed by a triple glycine linker was added to the N-terminus of PfHT via PCR [18] using Phusion Hot Start II High-Fidelity DNA Polymerase (Fisher Scientific). Single clones were selected by comparing their abilities to transport glucose as assayed via FRET and radiolabeled hexose uptake. In all cell lines, except for HEK293 cells overexpressing hGLUT1 and hGLUT5, native hGLUT1 was knocked down using shRNA as described elsewhere. Transcript levels of the individual GLUTs expressed in each cell line are as described in [13, 15] and in S1 Fig.
Glucose uptake by P. falciparum was performed essentially as described. P. falciparum strain 3D7 was cultured in 100 mm tissue culture dishes (Techno Plastic Products) in a 2% suspension of human erythrocytes and RPMI 1640 medium until reaching > 7.5% parasitemia. Cells were pelleted via centrifugation and resuspended in RPMI 1640 medium. To determine the uptake of radiolabeled glucose into the parasite, parasites were isolated from infected erythrocytes by permeablization with saponin (0.05 w/v), followed by centrifugation, aspiration of supernatant and washing of the pellet 3X with saline solution (135 mM NaCl, 2 mM KCl, 25 mM HEPES, 0.2 mM glucose and 1 mM MgCl2; pH 7.1) to remove cellular debris. WU-1 or DMSO vehicle were added to 100 μl parasites (resuspended in saline) 5 min prior to the addition of 100 μl [^14C]2-DOG (0.2- μCi/ml final concentration). 2-DG uptake was stopped after 2 min by layering the entire reaction over 300 μl of an oil mixture (5:4 mix of dibutyl phthalate / dinonyl phthalate) in Eppendorf tubes and centrifuged at 15,850 × g for 2 mins. The ratio of the estimated intracellular concentration of radiolabel relative to the extracellular concentration were calculated as described. Uptake of radiolabeled hexose into HEK293 cells was measured in glucose-free HBSS as described previously. Briefly, cells were plated at 400,000 cells/well overnight at 37°C in 24-well plates pre-treated with PEI. After 30-min incubation at 37°C in glucose-free HBSS in the presence of vehicle or increasing concentrations of compound, 2-DG uptake was measured in glucose-free HBSS for 4 min at 37°C. Cultures were washed in ice-cold 1X PBS and lysed in 0.1% Triton X-100 in 1X PBS. Radiolabeled hexose uptake was determined by liquid scintillation counting (Ultima Gold, Thermo Fisher) and normalized to total protein per well. Uptake data are plotted as percent uptake relative to vehicle-treated cells. Kinetic analyses were performed using the indicated concentrations of substrate and WU-1, with quenching of uptake after 1 min incubation. Incubation times had been previously determined as being in the linear range of time-dependent radiolabeled hexose uptake (2 min for 2-DG uptake into freed parasites; 2 and 4 min for D-Frc and 2-DG uptake HEK cell lines, respectively). Data were fit by least squares nonlinear regression analysis using GraphPad Prism 6.0 software.

[1] = HEK293, 2 min, read-out: D-frc Uptake AVE

## Cc1ccc(S(=O)(=O)CCNC(=O)c2c(-c3c(Cl)cccc3Cl)noc2C)cc1 [WU-1, 3-(2,6-dichlorophenyl)-5-methyl-N-[2-(4-methylbenzenesulfonyl)ethyl]-1,2-oxazole-4-carboxamide]
GLUT8, D-frc Uptake, average of Expt 1-3, read-out: AVE IC50
  IC50: 22 µM
GLUT8, D-frc Uptake, single experiments Expt 1-3, read-out: IC50
  IC50: 23.3 µM and 19.7 µM and 23.1 µM
GLUT8 cell line, read-out: IC50, D-fructose (Frc) uptake
  IC50: 22 ± 1.2 µM
HEK293, 2 min, GLUT8, concentration 0.001 µM, Expt 1-3, read-out: D-frc Uptake AVE
  remaining activity at 0.001 µM: 100%
HEK293, 2 min, GLUT8, concentration 0.313 µM, read-out: D-frc Uptake AVE
  remaining activity at 0.313 µM: 96.4%
HEK293, 2 min, GLUT8, concentration 0.625 µM, read-out: D-frc Uptake AVE
  remaining activity at 0.625 µM: 90%
HEK293, 2 min, GLUT8, concentration 1.250 µM, read-out: D-frc Uptake AVE
  remaining activity at 1.25 µM: 89.1%
HEK293, 2 min, GLUT8, concentration 2.500 µM, read-out: D-frc Uptake AVE
  remaining activity at 2.5 µM: 86%
HEK293, 2 min, GLUT8, concentration 5.0 µM, read-out: D-frc Uptake AVE
  remaining activity at 5 µM: 78.5%
HEK293, 2 min, GLUT8, concentration 10.0 µM, read-out: D-frc Uptake AVE
  remaining activity at 10 µM: 71.4%
HEK293, 2 min, GLUT8, concentration 20 µM, read-out: D-frc Uptake AVE
  remaining activity at 20 µM: 53%
HEK293, 2 min, GLUT8, concentration 40 µM, read-out: D-frc Uptake AVE
  remaining activity at 40 µM: 46.1%
HEK293, 2 min, GLUT8, concentration 80 µM, read-out: D-frc Uptake AVE
  remaining activity at 80 µM: 30.5%
HEK293, 2 min, GLUT8, concentration 160 µM, read-out: D-frc Uptake AVE
  remaining activity at 160 µM: 24.8%
HEK293, 2 min, GLUT8, concentration 225 µM, read-out: D-frc Uptake AVE
  remaining activity at 225 µM: 22.6%
[1]
  remaining activity at 0.625 µM: 91.6%
  remaining activity at 2.5 µM: 84.6%
Calculated from IC50s
  Selectivity Index (PfHT over GLUT8), Frc: 4.4
